Data reported in the supplement of paper PMC10627819.
Converted amounts (≈) assume the structure as drawn.

How the values were obtained:
[1] = test system: S. pneumoniae D39V; assay: fitness (endpoint OD595 vs no drug) (fraction); higher = more growth
Method in brief: (§1)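 Fitness was measured as bacterial growth in 384-well plates inoculated at OD595 0.01 (30 µl, or 55 µl for S. pneumoniae). Media were TSB, LB Lennox or CY, at 37 °C. OD595 was read every 30 min for 14 h and background-subtracted against the first reading. Fitness is OD595 at the transition into stationary phase divided by the robust mean of no-drug control wells, capped at 1.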

[2] = test system: S. aureus DSM 20231; assay: as above
Method in brief: as §1

[3] = test system: B. subtilis 168; assay: as above
Method in brief: as §1

[4] = test system: S. pneumoniae D39V; assay: Bliss interaction score (quartile over a dose matrix) (fitness difference); higher = more antagonism (negative = synergy)
Method in brief: (§2)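 Each OD595 reading at entry into stationary phase was scaled to the robust mean of the untreated wells on its plate, with a ceiling of 1. These ratios define fitness, and single-drug fitness was inferred from combinations. The Bliss score compares observed fitness with the product-based expectation and is reported as quartiles across all replicate types, technical, biological and donor/recipient.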

[5] = test system: S. aureus DSM 20231; assay: as above
Method in brief: as §2

[6] = test system: S. aureus Newman; assay: as above
Method in brief: as §2

[7] = test system: B. subtilis 168; assay: as above
Method in brief: as §2

[8] = test system: S. pneumoniae D39V
[9] = test system: S. aureus DSM 20231
[10] = test system: S. aureus Newman
[11] = test system: B. subtilis 168
[12] = test system: S. aureus Newman; assay: fitness (endpoint OD595 vs no drug) (fraction); higher = more growth
Method in brief: as §1
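Wherever Bliss interaction score (quartile over a dose matrix) is given: first quartile when negative (synergy) and third quartile when positive (antagonism).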

CC(=O)NC[C@H]1CN(c2ccc(N3CCOCC3)c(F)c2)C(=O)O1 [Linezolid] + Cc1onc(-c2ccccc2)c1C(=O)N[C@@H]1C(=O)N2[C@@H]1SC(C)(C)[C@@H]2C(=O)O [Oxacillin]
Conditions | fitness
[1], first compound 0.105 µg/mL, partner 0.01 µg/mL | 0.917
[1], first compound 0.105 µg/mL, partner 0.02 µg/mL | 0.872
[1], first compound 0.105 µg/mL, partner 0.04 µg/mL | 0.42
[1], first compound 0.2 µg/mL, partner 0.01 µg/mL | 0.78
[1], first compound 0.2 µg/mL, partner 0.02 µg/mL | 0.764
[1], first compound 0.2 µg/mL, partner 0.04 µg/mL | 0.594
[1], first compound 0.21 µg/mL, partner 0.01 µg/mL | 0.791
[1], first compound 0.21 µg/mL, partner 0.02 µg/mL | 0.704
[1], first compound 0.21 µg/mL, partner 0.04 µg/mL | 0.382
[1], first compound 0.4 µg/mL, partner 0.01 µg/mL | 0.623
[1], first compound 0.4 µg/mL, partner 0.02 µg/mL | 0.609
[1], first compound 0.4 µg/mL, partner 0.04 µg/mL | 0.431
[1], first compound 0.42 µg/mL, partner 0.01 µg/mL | 0.63
[1], first compound 0.42 µg/mL, partner 0.02 µg/mL | 0.564
[1], first compound 0.42 µg/mL, partner 0.04 µg/mL | 0.175
[1], first compound 0.8 µg/mL, partner 0.04 µg/mL | 0.218
[2], first compound 0.125 µg/mL, partner 0.0156 µg/mL | 0.791
[2], first compound 0.125 µg/mL, partner 0.0312 µg/mL | 0.665
[2], first compound 0.125 µg/mL, partner 0.0625 µg/mL | 0.52
[2], first compound 0.25 µg/mL, partner 0.0156 µg/mL | 0.52
[2], first compound 0.25 µg/mL, partner 0.0312 µg/mL | 0.501
[2], first compound 0.25 µg/mL, partner 0.0625 µg/mL | 0.415
[2], first compound 0.5 µg/mL, partner 0.0156 µg/mL | 0.21
[2], first compound 0.5 µg/mL, partner 0.0312 µg/mL | 0.188
[2], first compound 0.5 µg/mL, partner 0.0625 µg/mL | 0.156
[3], first compound 0.125 µg/mL, partner 0.002 µg/mL | 0.567
[3], first compound 0.125 µg/mL, partner 0.004 µg/mL | 0.513
[3], first compound 0.125 µg/mL, partner 0.008 µg/mL | 0.515
[3], first compound 0.25 µg/mL, partner 0.002 µg/mL | 0.112
[3], first compound 0.25 µg/mL, partner 0.004 µg/mL | 0.108
[3], first compound 0.25 µg/mL, partner 0.008 µg/mL | 0.102
[3], first compound 0.5 µg/mL, partner 0.002 µg/mL | 0.0413
[3], first compound 0.5 µg/mL, partner 0.004 µg/mL | 0.0471
[3], first compound 0.5 µg/mL, partner 0.008 µg/mL | 0.0549

one replicate
Conditions | fitness
[2], first compound 1 µg/mL, partner 0.0156 µg/mL | 0.0486
[2], first compound 1 µg/mL, partner 0.0312 µg/mL | 0.0427
[2], first compound 1 µg/mL, partner 0.0625 µg/mL | 0.0557
[3], first compound 0.0625 µg/mL, partner 0.0078 µg/mL | 0.913
[3], first compound 0.0625 µg/mL, partner 0.0155 µg/mL | 0.809
[3], first compound 0.0625 µg/mL, partner 0.031 µg/mL | 0.81
[3], first compound 0.125 µg/mL, partner 0.0078 µg/mL | 0.594
[3], first compound 0.125 µg/mL, partner 0.0155 µg/mL | 0.553
[3], first compound 0.125 µg/mL, partner 0.031 µg/mL | 0.529
[3], first compound 0.125 µg/mL, partner 0.075 µg/mL | 0.611
[3], first compound 0.125 µg/mL, partner 0.15 µg/mL | 0.0387
[3], first compound 0.125 µg/mL, partner 0.3 µg/mL | 0.0501
[3], first compound 0.25 µg/mL, partner 0.0078 µg/mL | 0.0705
[3], first compound 0.25 µg/mL, partner 0.0155 µg/mL | 0.0604
[3], first compound 0.25 µg/mL, partner 0.031 µg/mL | 0.0611
[3], first compound 0.25 µg/mL, partner 0.075 µg/mL | 0.241
[3], first compound 0.25 µg/mL, partner 0.15 µg/mL | 0.0531
[3], first compound 0.25 µg/mL, partner 0.3 µg/mL | 0.0536
[3], first compound 0.5 µg/mL, partner 0.075 µg/mL | 0.0447
[3], first compound 0.5 µg/mL, partner 0.15 µg/mL | 0.0563
[3], first compound 0.5 µg/mL, partner 0.3 µg/mL | 0.0594

Conditions | Bliss interaction score
[4] | 0.136
[5] | -0.0365
[6] | -0.0461
[7] | 0.0403

CO[C@@]12[C@H](COC(N)=O)C3=C(C(=O)C(C)=C(N)C3=O)N1C[C@@H]1N[C@@H]12 [Mitomycin C]
Conditions | MIC [µg/mL]
[8] | 0.062 (≈ 0.185 µM)
[9] | 0.069 (≈ 0.206 µM)
[10] | 0.069 (≈ 0.206 µM)
[11] | 0.25 (≈ 0.748 µM)

Conditions | fitness
[1], 0.002 µg/mL | 0.823
[1], 0.004 µg/mL | 0.754
[1], 0.008 µg/mL | 0.554
[2], 0.0156 µg/mL | 0.844
[2], 0.0312 µg/mL | 0.775
[2], 0.0625 µg/mL | 0.59
[2], 0.1562 µg/mL | 0.886
[3], 0.0312 µg/mL | 0.78
[3], 0.0625 µg/mL | 0.582
[3], 0.125 µg/mL | 0.0244
[12], 0.0156 µg/mL | 0.71
[12], 0.0312 µg/mL | 0.618
[12], 0.0625 µg/mL | 0.452
